Key:
[1] = system: GG1 (DNA, mismatch bulge abasic) CTAACGGAATG/CATTCGGTTAG; test: NMR structure and titration; settings: Na+ 100 mM (NaCl); 20 mM sodium phosphate pH 6.8, 283 K; slow exchange, cooperative
[2] = system: GG1 (DNA, mismatch bulge abasic) CTAACGGAATG/CATTCGGTTAG; test: ITC; settings: Na+ 100 mM (NaCl), 10 mM sodium cacodylate pH 7.0, 25 °C, 2.5 µM DNA, 50 µM NCD titrant
[3] = system: GG1 with a T4 hairpin loop (DNA, mismatch bulge abasic) CTAACGGAATGTTTTCATTCGGTTAG; test: CSI-TOF MS; settings: NH4+ 100 mM (ammonium acetate); 50% aqueous methanol, spray -10 °C; 5 µM DNA, 100 µM NCD; 1:1 complex not observed
[4] = system: GG1 (DNA, mismatch bulge abasic) CTAACGGAATG/CATTCGGTTAG; test: UV melting at 260 nm; settings: Na+ 100 mM (NaCl); 10 mM sodium cacodylate pH 7.0; 5 µM DNA, 20 µM NCD; Tm without and with NCD
[5] = system: d(CGG)10 (DNA, repeat) CGGCGGCGGCGGCGGCGGCGGCGGCGGCGG; test: CSI-TOF MS; settings: NH4+ 100 mM (ammonium acetate); 50% aqueous methanol, spray -10 °C; 10 µM DNA, 50 µM NCD
[6] = system: GG1 (DNA, mismatch bulge abasic) CTAACGGAATG/CATTCGGTTAG; test: CD; settings: Na+ 100 mM (NaCl); 10 mM sodium cacodylate pH 7.0, room temperature; 5 µM DNA, 20 µM NCD

Compound: Cc1ccc2ccc(NC(=O)OCCCNCCCOC(=O)Nc3ccc4ccc(C)nc4n3)nc2n1
- binding [1]: yes
- apparent KD [2]: 67 nM
- binding [3]: yes
- Tm [4]: 21.8 °C
- binding [5]: yes
- binding [6]: yes

Reference: article PMC9508812 (2022)
